{
  "source": "patent US8653048B2",
  "about": "(Sanlugen Pharmatech Ltd., priority 2009, dated 2014)",
  "experiment": "Pharmacokinetics of gemcitabine in mice, intravenous and oral",
  "format": "in vivo",
  "settings": "both sexes, Kunming, mouse, plasma, 50 mg/kg; for MRT last: read-out: MRT0-t",
  "description": "Kunming strain white mice (25+1 g, provided by Experimental Animal Center of Shandong University, half of which were male, half were female).\nThe solution was filtered and sterilized using a 0.22 μm microfiltration membrane.\n120 healthy Kunming mice were taken and divided into two groups randomly. […] The second group was given gemcitabine by intravenous injection in a tail vein. Five mice were settled parallel at each time point. The dosage was 50 mg/kg (equivalent to 0.2 mL per mouse). The mice were fasted but allowed to drink for a 12 h period before administration. Blood samples were drawn from eyebase veniplex at 5 min, 15 min, 30 min, 45 min, 1 h, 2 h, 4 h, 6 h, 8 h, 12 h, 24 h, 48 h after the administration and put into hepain sodium treated centrifuge tubes containing 2.5 μL tetrahydrouridine solution (THU, 10 mg/ml) and centrifuged for 15 min at 4000 r/min. Isopropanol (1 mL) was added into the solution and vortexed for 30 s and kept still for 5 min. 2.5 ml of EtOAc was added and votexed and centrifuged at 4000 rpm for 15 minutes. The supernatant was taken and dried by blowing in nitrogen. The dried sample was redissolved in 200 μL HPLC mobile phase solution. 20 μL sample was loaded to the HPLC. The chromatography and peak area were recorded.",
  "note": "Like-named read-outs stand apart in the source and are kept apart here.",
  "data": [
    {"molecule": "Nc1ccn([C@@H]2O[C@H](CO)[C@@H](O)C2(F)F)c(=O)n1", "note": "[Gemcitabine, gemcitabine, reference compound]", "values": [
      {"measurement": "AUC(0-t)", "setting": "iv", "result": 11300, "unit": "ng·h/mL"},
      {"measurement": "Cmax", "setting": "iv", "result": 11500, "unit": "ng/mL"},
      {"measurement": "Tmax", "setting": "iv", "result": 4.98, "unit": "min"},
      {"measurement": "half-life", "setting": "iv", "result": 58.2, "unit": "min"},
      {"measurement": "MRT last", "setting": "iv", "result": 64.2, "unit": "min"},
      {"measurement": "bioavailability", "setting": "oral, AUCoral/AUCiv, mice, read-out: Absolute bioavailability", "result": 35.6, "unit": "%"},
      {"measurement": "AUC(0-t)", "setting": "po", "result": 4020, "unit": "ng·h/mL"},
      {"measurement": "Cmax", "setting": "po", "result": 2600, "unit": "ng/mL"},
      {"measurement": "Tmax", "setting": "po", "result": 30, "unit": "min"},
      {"measurement": "half-life", "setting": "po", "result": 49.8, "unit": "min"},
      {"measurement": "MRT last", "setting": "po", "result": 76.8, "unit": "min"}
    ]}
  ]
}
